Data on three molecules can be found in article PMC7367369, “A small library of chalcones induce liver cancer cell death through Akt phosphorylation inhibition” (Scientific Reports, 2020).

Some results are limits rather than exact numbers.

Holding throughout (type): cell-based, human
One assay relates to Mahlavu and Huh7 cells. Briefly: Cell cycle analysis (propidium iodide). The note with it: Mahlavu and Huh7, IC50 concentrations, 72 h. As for the experimental part:
(§1) Human liver cancer cells Mahlavu and Huh7 were treated with the compounds according to the IC50 values obtained from RT-CES experiments or DMSO controls for 72hr. […] We further assessed the effects of the selected chalcones 1, 9, and 11 on the cell cycle progression analysis of liver cancer cells. Human liver cancer cells Mahlavu and Huh7 were treated with the compounds according to the IC50 values obtained from RT-CES for 72 h. Then the DNA in the treated cells were stained with propidium iodide and analyzed with fluorescent-activated cell sorter. […] In order to confirm the induction of apoptosis in human liver cancer cells treated with the chalcones, cleavage of PARP protein (marker of apoptosis) was investigated.
(§2) Figure 3 Cell death induced by the chalcones. (A) Nuclear staining of the liver cancer cells treated with the chalcones. Human liver cancer cells (Huh7 and Mahlavu) were treated with the IC50 concentrations of the chalcones 1, 9, 11. After 72 h of incubation with the compounds or DMSO control, Hoechst (33258) staining was performed. Images were taken with fluorescent microscope (×40). Due to the strong cytotoxic activities of the chalcones the number of the cells in objective area was much less than DMSO controls. (B) Cell cycle distribution of liver cancer cells. Huh7 and Mahlavu cells were treated for 72 h with IC50 concentrations of the compounds or DMSO control. SubG1 cell cycle arrest was observed upon treatment with the compounds (blue). (C) Investigation of PARP cleavage in Huh7 and Mahlavu cells treated with the selected chalcones for 24 h.
Then samples were stained with propidium iodide which binds to DNA and analyzed with MUSE® Cell Cycle Assay Kit (EMD Milipore).

The next assay deals with FOCUS. Briefly: NCI-60 sulforhodamine B (SRB) cytotoxicity assay, FOCUS. As to conditions: Homo sapiens; SRB, 72 h, 2.5–40 μM, triplicate; read-out: IC50 FOCUS. The protocol: (§3) The bioactivities of the synthesized chalcones were assessed on human liver cancer cell lines and on DPSCs with NCI-SRB assay in vitro. DPSCs used to asses the bioactivity of chalcones on untransformed control cells with the potential of hepatic lineage. […] We also included 5-Fluorouracil which is used in clinics for gastrointestinal cancers and Sorafenib. All results were normalized to DMSO negative control measurements. The experiment was performed in triplicate.
(§4) Well differentiated human primary liver cancer cell lines Huh7, HepG2 and Hep3B, and poorly differentiated Mahlavu, FOCUS and SNU475 HCC cells were cultured in Dulbecco’s Modified Eagle’s Standard (DMEM) medium supplemented with 10% Fetal Bovine Serum (FBS), 100 units/mL penicillin and 100 µg/mL streptomycin (Gibco, Invitrogen, Carlsbad, CA, USA). 0.1 mM nonessential amino acids (NEAA) which are specific to HCC cell lines also added to culture media. Cells were cultured in a 5% CO2 incubator at 37^∘C
(§5) Primary liver cancer cells Huh7, HepG2, Hep3B, Mahlavu, FOCUS, Snu475 along with hepatic progenitor Dental pulp stem cells were seeded into 96-well plates (1,000–3,000 HCC cell/well and 10,000 cells DPSC/well ) for 24 h. The cells were then treated with increasing concentrations of the chalcones ( 2.5-40μM ). DMSO (AppliChem Biochemica, Darmstadt, Germany) was used as negative control. The growth has stopped at the end of 72 h by fixing cold with 10% (v/v) trichloroacetic acid (Merck, Schuchardt, Germany). Cells were then stained with 0.4% (m/v) of sulforhodamine (Sigma-Aldrich, St. Louis, USA) in 1% acetic acid solution. […] All experiments were done in triplicate.
(In general: The SRB assay estimates cell density from bound dye.)

The subject of assay [1] is pAkt (Ser473) in Mahlavu cells. As to the kind of experiment: Western blot, phosphorylated Akt levels. The note with it: IC50 concentrations (Fig. 2), 24 h. As for the experimental part: (§6) Figure 4 Proteins targeted by the compounds. Human liver cancer cells (Mahlavu) were treated with the IC50 concentrations of the selected compounds or DMSO control for 24 h. […] (B–D) Quantification of the results using ImageJ software. (E) Schematic representation of the molecular mechanism of action of the compounds. Blocked signaling is crossed.
In order to investigate the significant bioactivity of the chalcones 1, 9 and 11 on human liver cancer cell line Mahlavu which has an hyperactive PI3K/Akt pathway due to PTEN-deficiency[13], we analyzed the effect of the chalcones on the active phosphorylated Akt levels in this cell line.
Poorly differentiated liver cancer cell line Mahlavu cells were cultured in 100 mm culture dish for 24 h. […] Anti-PARP antibody (Cell Signaling, 9532), pAkt (Ser473) antibody (Cell Signaling, 9271), Akt antibody (Cell Signaling, 9272), pNFkB-p65 (Ser468) antibody (Snat Cruz, sc101750), p21 antibody (Millipore, 05345), pRb (Ser807/811) antibody (Cell Signaling, 9308), Rb antibody (Santa Cruz, sc102), actin antibody (Sigma, A5441) and calnexin antibody (Sigma, C4731) were used as primary antibodies. Anti-rabbit (6154) and anti-mouse (0168) secondary antibodies were used. ImageJ tool ([42]) used for protein band intensity comparison. Original Full length blots are given as Supplementary Information.
(In general: Immunoblotting shows a protein as a band on a membrane.)

A further assay concerns HepG2. As to the kind of experiment: NCI-60 sulforhodamine B (SRB) cytotoxicity assay, HepG2. As to conditions: Homo sapiens, HepG2; SRB, 72 h, 2.5–40 μM, triplicate; read-out: IC50 HepG2. As for the experimental part:
as §3, §4, §5

In the next assay the test system is Mahlavu. As to the kind of experiment: NCI-60 sulforhodamine B (SRB) cytotoxicity assay, Mahlavu. The note with it: Homo sapiens, Mahlavu; SRB, 72 h, 2.5–40 μM, triplicate; read-out: IC50 Mahlavu. As for the experimental part:
as §3, §4, §5

Assay [2] has as its system pNFkB-p65 (Ser468) in Mahlavu cells. Briefly: Western blot, phosphorylation of NFkB-p65. The note with it: IC50 concentrations, 24 h. The protocol:
as §6
NFB is a transcription factor which is a fundamental component of inflammation pathway. This protein has also crucial roles in cell proliferation and apoptosis, thus cancer progression. […] Since the inflammation is one of the hallmarks of cancer, we also investigated the effect of our compounds on NFB protein. […] This form of NFB is the activated form which translocates into the nucleus to function as a transcription factor.
(§7) Poorly differentiated liver cancer cell line Mahlavu cells were cultured in 100 mm culture dish for 24 h. […] Anti-PARP antibody (Cell Signaling, 9532), pAkt (Ser473) antibody (Cell Signaling, 9271), Akt antibody (Cell Signaling, 9272), pNFkB-p65 (Ser468) antibody (Snat Cruz, sc101750), p21 antibody (Millipore, 05345), pRb (Ser807/811) antibody (Cell Signaling, 9308), Rb antibody (Santa Cruz, sc102), actin antibody (Sigma, A5441) and calnexin antibody (Sigma, C4731) were used as primary antibodies. Anti-rabbit (6154) and anti-mouse (0168) secondary antibodies were used. […]

For a further assay, the system named is p21 in Mahlavu cells. Briefly: Western blot, p21 protein levels. The note with it: IC50 concentrations, 24 h. As for the experimental part:
as §6
(§8) In the literature, it was shown that the anti-cancer effect of chalcones on uterus leiomyoma cells was through an increase in p21 protein[35]. Thus we also examined the levels of p21 in our cells. Furthermore, p21 is also a downstream element of Akt pathway. […] Therefore, the effect on Rb protein, which is also a downstream element of p21, was investigated in the presence of the chalcones 1, 9 and 11.
as §7, with “used. ImageJ tool ([42]) used for protein band intensity comparison.” for “used.”

Assay [3] has as its system PARP cleavage in Huh7 and Mahlavu cells. As to the kind of experiment: Western blot, PARP cleavage (marker of apoptosis). The note with it: 24 h. The protocol: as §1
as §2, with “SubG1 cell cycle arrest was observed upon treatment with the compounds (blue). (C) Investigation of PARP cleavage in Huh7 and Mahlavu cells treated with the selected chalcones for 24 h.” left out

For assay [4], the system named is pRb (Ser807/811) in Mahlavu cells. As to the kind of experiment: Western blot, phosphorylated Rb protein levels. As to conditions: IC50 concentrations, 24 h. As for the experimental part: as §6, §8
as §7, with “used. ImageJ tool ([42]) used for protein band intensity comparison.” for “used.”

As a reminder, the IC50 is the concentration that gives 50% inhibition. `COc1ccc(C(=O)/C=C/c2cccc([N+](=O)[O-])c2)cc1` [compound 1]: in the assay on Mahlavu and Huh7 cells, the cell cycle progression entry is given as “induced SubG1 cell cycle arrest”. Besides, the values for the IC50 with FOCUS, with HepG2 and in the assay on Mahlavu were 4.9 µM, 4.2 µM and under 2.5 µM, respectively. In addition, in assay [1], the “levels of pAkt” value is listed as “decrease in the levels of pAkt”.
As to `O=C(/C=C/c1ccccc1)c1ccccc1` [compound 9], in the assay on Mahlavu and Huh7 cells, the cell cycle progression entry is listed as “induced SubG1 cell cycle arrest”. Further, the IC50 with FOCUS came to 3.3 µM; with HepG2, 7.3 µM; in the assay with Mahlavu, 6.3 µM. For the same molecule, in [2], the “phosphorylation of NFB-p65 at Ser468” value is reported as “decreased significantly”. In addition, the “levels of pAkt” value in [1] was “decrease in the levels of pAkt”. In addition, the p21 protein levels entry in the assay on p21 in Mahlavu cells is reported as “increased significantly”. In addition, the PARP cleavage result in assay [3] is “PARP cleavage was present significantly”. In addition, the “phosphorylated Rb protein levels” value in [4] is “decreased significantly”.
As to `O=C(/C=C/c1ccc(Cl)cc1)c1ccccc1` [compound 11], the cell cycle progression result in the assay with Mahlavu and Huh7 cells is recorded as “induced SubG1 cell cycle arrest”. Moreover, the half-maximal inhibitory concentration (IC50) in the assay on FOCUS was found to be 3.1 µM; in the assay on HepG2 it was 6.5 µM; with Mahlavu, 5.3 µM. For the same molecule, the “phosphorylation of NFB-p65 at Ser468” value in assay [2] is recorded as “decreased significantly”. The “levels of pAkt” value in assay [1] is on record as “decrease in the levels of pAkt”. Moreover, in the assay with p21 in Mahlavu cells, the p21 protein levels result was “increased significantly”. In assay [3], the PARP cleavage entry was “PARP cleavage was present significantly”. Further, in assay [4], the “phosphorylated Rb protein levels” value is given as “decreased significantly”.
